These results are taken from US20140350119A1, “OPHTHALMIC COMPOSITION COMPRISING GERANYLGERANYLACETONE” (ROHTO PHARMACEUTICAL CO., LTD., priority 2012, published 2014).

For test [1], the system named is PC12. Put plainly: Protective effect against ischemic cell death induced by hypoxia and low glucose (cell viability, Cell Titer-Glo). The class given is cell-based, rat. As to conditions: 30 μM, 2 h, then low glucose, zero percent O2, 8 h, FIG. 1, Tukey-Kramer test. The text has this:
The progress of visual impairment in glaucoma is associated with retinal ganglion cell (RGC) death due to blood flow failure occurring near the optic nerve (Folia Pharmacol. Jpn. 128, 255-258 (2006)). With the use of PC12, which is a typical neural cell line established from rat adrenal […] pheochromocytoma and used also as a model cell for the functional evaluation of RGC (J Neurosci Res. 2000 May 15; 60(4): 495-503.), the cytoprotective effect of GGA against ischemic cell death induced by hypoxia and low glucose was evaluated.
Test samples were prepared as follows. The test substances were four types of GGAs that contain the all-trans form and the 5Z-mono-cis form at a weight ratio of 10:0, 8:2, 6:4, and 0:10, respectively. […]
After 8 hours of incubation, 100 μL of an equivalent mixture of a cell viability detection reagent Cell Titer-Glo (Promega) and PBS was added to each well and the luminescence produced by the reaction with ATP in living cells was measured with a luminometer (GloMax; Promega). The cell viability was calculated from the measured luminescence by the following formula and the cytoprotective effect of GGA against […] was examined.
Cell viability (%)=100×[(luminescence of base- or GGA-treated group)/(luminescence of non-treated group)]
Background: In ATP-based viability assays light output follows the ATP content of the culture.

Test [2] deals with rat-derived retinal ganglion cells (RGC). As to the kind of experiment: Neurite outgrowth inducing effect in culture system of rat-derived retinal ganglion cells. The class given is cell-based, Wistar rats. As to conditions: all-trans form content 3 μM; 48 hours; FIG. 2, FIG. 3; n=4. The text has this:
The progress of visual impairment in glaucoma is associated with retinal ganglion cell (RGC) death due to blood flow failure occurring near the optic nerve (Folia Pharmacol. Jpn. 128, 255-258 (2006)). Accordingly, a culture system of rat-derived retinal neurons (Current protocols in Neuroscience 3.22.1-3.22.10, October 2010), which is widely used as one of study tools for optic nerve diseases such as a glaucoma, was used to examine the neurite outgrowth inducing effect of GGA.
Four-day-old Wistar rats (Japan SLC, Inc.) were euthanized by cervical dislocation and the eyeballs were harvested. The harvested eyeballs were immersed in 70% ethanol for 10 seconds and transferred to a Hanks' balanced salt solution containing 100 U/mL penicillin and 100 μg/mL streptomycin. Under a stereoscopic microscope, the corneas, irises, crystalline lenses, and vitreous bodies were removed using scissors for surgery and forceps, and the retinal tissue was harvested. The harvested retinal tissue was transferred to a centrifugation tube containing 5 mL of a basal medium for neuronal cells (Neurobasal, Invitrogen) containing 100 U/mL penicillin, 100 μg/mL streptomycin, a neural cell culture supplement (B27™-Supplement, Invitrogen), 1 μM L-cysteine (Kyowa Hakko Bio) and 15 U/mL papain (Sigma Aldrich) and incubated at 37° C. for 30 minutes. […]

Regarding `CC(=O)CC/C=C(\C)CC/C=C(\C)CC/C=C(\C)CCC=C(C)C` [all-trans form, (5E,9E,13E)-6,10,14,18-tetramethyl-5,9,13,17-nonadecatetrae n-2-one], in test [1], the “Cytoprotective effect compared with GGA of weight ratio 6:4” value is “significantly higher cytoprotective effects”. The “Neurite inducing effect (mean length of neurites of RGC) compared with GGA 6:4 and base” value in test [2] was “significant neurite inducing effect”.
